The source made the active and inactive calls. The rule behind the calls is not given here.
Experiments:
NCI-H1975 [1] = test: Antiproliferative activity against human NCI-H1975 cells incubated for 3 days by CCK-8 assay; type: functional, cell-based; conditions: NCI-H1975, 72 h
NCI-H1975 [2] = test: Downregulation of c-Met expression in human NCI-H1975 cells incubated for 72 hrs by Western blot analysis; type: functional, cell-based; conditions: dose <= 1000.0 nM
NCI-H1975 [3] = test: Downregulation of c-Met mRNA expression in human NCI-H1975 cells at 0.5 to 1 uM incubated for 24 hrs by qRT-PCR analysis; type: functional, cell-based; conditions: dose 0.5-1 µM
A549 [4] = test: Downregulation of c-Met mRNA expression in human A549 cells at 0.5 to 1 uM incubated for 24 hrs by qRT-PCR analysis; type: functional, cell-based; conditions: dose 0.5-1 µM
A549 [5] = test: Induction of cell cycle arrest in human A549 cells assessed as accumulation of cells at G1 phase at 0.5 uM measured for 24 hrs by PI/Rnase staining based flow cytometry (reference value: 75.2 %); type: functional
A549 [6] = test: Induction of cell cycle arrest in human A549 cells assessed as accumulation of cells at G2 phase at 1 uM measured for 24 hrs by PI/Rnase staining based flow cytometry (reference value: 13.4 %); type: functional
A549 [7] = test: Induction of cell cycle arrest in human A549 cells assessed as accumulation of cells at G1 phase at 2 uM measured for 24 hrs by PI/Rnase staining based flow cytometry (reference value: 75.2 %); type: functional
NCI-H1975 [8] = test: Induction of cell cycle arrest in human NCI-H1975 cells assessed as accumulation of cells at G2 phase at 0.5 uM measured for 24 hrs by PI/Rnase staining based flow cytometry (reference value: 14.8 %); type: functional
NCI-H1975 [9] = test: Induction of cell cycle arrest in human NCI-H1975 cells assessed as accumulation of cells at G1 phase at 1 uM measured for 24 hrs by PI/Rnase staining based flow cytometry (reference value: 79.2 %); type: functional
A549 [10] = test: Induction of apoptosis in human A549 cells assessed as early apoptotic cells at 1 uM incubated for 24 hrs by Annexin V-FITC/PI staining based flow cytometry analysis (reference value: 1.73 %); type: functional
A549 [11] = test: Induction of apoptosis in human A549 cells assessed as viable cells at 2 uM incubated for 24 hrs by Annexin V-FITC/PI staining based flow cytometry analysis (reference value: 91.3%); type: functional; conditions: read-out: Activity
A549 [12] = test: Induction of apoptosis in human A549 cells assessed as early apoptotic cells at 2 uM incubated for 24 hrs by Annexin V-FITC/PI staining based flow cytometry analysis (reference value: 1.73 %); type: functional
A549 [13] = test: Induction of apoptosis in human A549 cells assessed as late apoptotic cells at 2 uM incubated for 24 hrs by Annexin V-FITC/PI staining based flow cytometry analysis (reference value: 2.56 %); type: functional
NCI-H1975 [14] = test: Induction of apoptosis in human NCI-H1975 cells assessed as early apoptotic cells at 0.5 uM incubated for 24 hrs by Annexin V-FITC/PI staining based flow cytometry analysis (reference value: 0.35 %); type: functional
NCI-H1975 [15] = test: Induction of apoptosis in human NCI-H1975 cells assessed as late apoptotic cells at 0.5 uM incubated for 24 hrs by Annexin V-FITC/PI staining based flow cytometry analysis (reference value: 2.27 %); type: functional
NCI-H1975 [16] = test: Induction of apoptosis in human NCI-H1975 cells assessed as late apoptotic cells at 1 uM incubated for 24 hrs by Annexin V-FITC/PI staining based flow cytometry analysis (reference value: 2.27 %); type: functional
NCI-H1975 [17] = test: Induction of apoptosis in human NCI-H1975 cells assessed as necrotic cells at 1 uM incubated for 24 hrs by Annexin V-FITC/PI staining based flow cytometry analysis (reference value: 7.33 %); type: functional
NCI-H1975 [18] = test: Induction of apoptosis in human NCI-H1975 cells assessed as viable cells at 2 uM incubated for 24 hrs by Annexin V-FITC/PI staining based flow cytometry analysis (reference value: 90.1 %); type: functional; conditions: read-out: Activity
NCI-H1975 [19] = test: Induction of apoptosis in human NCI-H1975 cells assessed as early apoptotic cells at 2 uM incubated for 24 hrs by Annexin V-FITC/PI staining based flow cytometry analysis (reference value: 0.35 %); type: functional
NCI-H1975 [20] = test: Induction of apoptosis in human NCI-H1975 cells assessed as necrotic cells at 2 uM incubated for 24 hrs by Annexin V-FITC/PI staining based flow cytometry analysis (reference value: 7.33 %); type: functional
Quadruplex DNA = test: Binding affinity to c-MET G4-quadruplex DNA (unknown origin) assessed as dissociation constant by MST assay; type: nucleic-acid assay
A549 [21] = test: Antiproliferative activity against human A549 cells assessed as inhibition of cell growth incubated for 3 days by CCK-8 assay; type: functional, cell-based; conditions: time 3.0 day
NCI-H1975 [22] = test: Inhibition of cell migration in human NCI-H1975 cells incubated for 12 hrs by crystal violet staining based analysis; type: functional; conditions: dose 0.5-2 µM
A549 [23] = test: Inhibition of c-MET expression in human A549 cells up to 2000 nM by Western blot analysis; type: functional, cell-based
A549 [24] = test: Antiproliferative activity against MET knockdown human A549 cells assessed as inhibition of cell growth by CCK-8 assay; type: functional, cell-based
A549 [25] = test: Antitumor activity against human A549 cells xenografted in BALB/c mouse assessed as tumor growth inhibition at 20 mg/kg, ip administered once a day and measured up to 24 days; type: functional; conditions: A549, 576 h, time <= 24 day, read-out: TGI
A549 [26] = test: Antitumor activity against human A549 cells xenografted in BALB/c mouse assessed as reduction in ki67 expression in tumor at 40 mg/kg, po administered once a day and measured up to 24 days by […] based analysis; type: functional, organism-based; conditions: time <= 24.0 day
[27] = Toxicity in BALB/c mouse xenografted with human A549 cells assessed as body weight loss at 40 mg/kg, po administered once a day and measured after 20 days; type: organism-based; conditions: in vivo, 480 h, time 20 day
[28] = Toxicity in BALB/c mouse xenografted with human A549 cells assessed as heart damage at 40 mg/kg, po administered once a day and measured after 20 days by H and E staining based analysis; type: organism-based; conditions: in vivo, 480 h, time 20 day
[29] = Toxicity in BALB/c mouse xenografted with human A549 cells assessed as liver damage at 40 mg/kg, po administered once a day and measured after 20 days by H and E staining based analysis; type: organism-based; conditions: in vivo, 480 h, time 20 day
[30] = Toxicity in BALB/c mouse xenografted with human A549 cells assessed as spleen damage at 20 mg/kg, po administered once a day and measured after 40 days by H and E staining based analysis; type: organism-based; conditions: in vivo, 960 h, time 40 day
[31] = Toxicity in BALB/c mouse xenografted with human A549 cells assessed as kidney damage at 20 mg/kg, po administered once a day and measured after 20 days by H and E staining based analysis; type: organism-based; conditions: in vivo, 480 h, time 20 day
[32] = Acute toxicity in Sprague-Dawley rat assessed as heart damage at 500 to 2000 mg/kg, po measured every 2 days by H and E staining based analysis; type: organism-based; conditions: in vivo, 48 h, dose 500-2000 mg/kg, time 2 day
[33] = Acute toxicity in Sprague-Dawley rat assessed as lung damage at 500 to 2000 mg/kg, po measured every 2 days by H and E staining based analysis; type: organism-based; conditions: in vivo, 48 h, dose 500-2000 mg/kg, time 2 day

SMILES: COc1cccc(-c2ccc(-c3nc4c5cccnc5c5ncccc5c4[nH]3)o2)c1
- IC50 (NCI-H1975 [1]): 1680 nM
- Activity (NCI-H1975 [2]): Dose-dependent-effect
- Activity (NCI-H1975 [3]): Active
- Activity (A549 [4]): Active
- Activity (A549 [5]): 75.4%
- Activity (A549 [6]): 10.4%
- Activity (A549 [7]): 83.9%
- Activity (NCI-H1975 [8]): 13%
- Activity (NCI-H1975 [9]): 82.1%
- Activity (A549 [10]): 6.47%
- viability at 2 µM (A549 [11]): 57.4%
- Activity (A549 [12]): 12.2%
- Activity (A549 [13]): 23.5%
- Activity (NCI-H1975 [14]): 2.01%
- Activity (NCI-H1975 [15]): 8.12%
- Activity (NCI-H1975 [16]): 10.1%
- Activity (NCI-H1975 [17]): 4.06%
- viability at 2 µM (NCI-H1975 [18]): 79.7%
- Activity (NCI-H1975 [19]): 2.21%
- Activity (NCI-H1975 [20]): 3.94%
- Kd (Quadruplex DNA): 73.5 nM
- Activity (A549 [21]): Active
- inhibition (NCI-H1975 [22]): Dose-dependent-effect
- inhibition (A549 [23]): Active
- Activity (A549 [24]): Active
- inhibition in vivo at 20 mg/kg (A549 [25]): 55.6%
- Activity (A549 [26]): Active
- Activity [27]: Non-toxic
- Activity [28]: Non-toxic
- Activity [29]: Non-toxic
- Activity [30]: Non-toxic
- Activity [31]: Non-toxic
- Activity [32]: Non-toxic
- Activity [33]: Non-toxic

From ChEMBL document CHEMBL6182924, “Discovery of a Novel and Potent MET Transcription Inhibitor Targeting Promoter G-Quadruplex for the Treatment of NSCLC” (J Med Chem, 2025)
